Target: Replicase polyprotein 1a (Severe acute respiratory syndrome-related coronavirus, UniProt P0C6U8)
Assay: Inhibition of SARS coronavirus chymotrypsin-like protease by fluorescence plate reader

N#Cc1c(-c2cccc([N+](=O)[O-])c2)nc(SCc2ccc([N+](=O)[O-])cc2)[nH]c1=O showed an IC50 of 10.6 µM.
Work on N#Cc1c(-c2ccc(Cl)cc2)nc(SCc2ccc([N+](=O)[O-])cc2)[nH]c1=O yielded an IC50 of 6.1 µM.
Compound N#Cc1c(-c2cccc(Cl)c2)nc(SCc2ccccc2)[nH]c1=O has an IC50 greater than 50 µM.
For COc1ccc(-c2nc(SCCc3ccccc3)[nH]c(=O)c2C#N)cc1, the IC50 was 20.3 µM.
In the case of COc1ccc(-c2nc(SCc3ccc([N+](=O)[O-])cc3)[nH]c(=O)c2C#N)cc1, the IC50 is reported as 26.3 µM.
For N#Cc1c(-c2ccccc2)nc(SCc2ccccc2)[nH]c1=O, the IC50 was greater than 50 µM.
In the case of N#Cc1c(-c2ccccc2)nc(SCCc2ccccc2)[nH]c1=O, the IC50 is reported as greater than 50 µM.
With N#Cc1c(-c2ccccc2)nc(SCc2ccc([N+](=O)[O-])cc2)[nH]c1=O the IC50 was 35.2 µM.
COc1ccc(-c2nc(SCc3ccccc3)[nH]c(=O)c2C#N)cc1 was tested, and the IC50 was greater than 50 µM.
Compound N#Cc1c(-c2cccc([N+](=O)[O-])c2)nc(SCCc2ccccc2)[nH]c1=O has an IC50 greater than 50 µM.
Work on Cc1ccc(-c2nc(SCCc3ccccc3)[nH]c(=O)c2C#N)cc1 yielded an IC50 greater than 50 µM.
Cc1ccc(-c2nc(SCc3ccc([N+](=O)[O-])cc3)[nH]c(=O)c2C#N)cc1 gave an IC50 greater than 50 µM.
N#Cc1c(-c2ccc(Cl)cc2)nc(SCCc2ccccc2)[nH]c1=O gave an IC50 of 16.9 µM.
Cc1ccc(-c2nc(SCc3ccccc3)[nH]c(=O)c2C#N)cc1 was tested, and the IC50 was greater than 50 µM.
